Laboratory results: patent EP0152799A1, “Compounds having peripheral calcium antagonist, anticonvulsive and eumetabolic activity, processes for the preparation thereof and pharmaceutical compositions containing them” (PULITZER ITALIANA S.p.A., priority 1984, dated 1985)

Assays:
[1] = system: cerebral district; assay: Cerebral perfusion in the rabbit (cerebral vasodilative activity); assay type: in vivo; conditions: 0.9 uM i.a.; for Area mm^2 / Difference in pressure / Δ: perfusion of the cerebral district
Procedure: The cerebral vasodilative activity of PU 122 in comparison with Flunarizine was tested by the method of the cerebral perfusion in the rabbit according to the procedure of Von P. Vaupel e H. Hutten (1980), by measurement of the decrease of the peripheral resistances in the cerebral district.
Said changement was determined by means of a transducer, by measuring the hematic pressure at the cerebral level and scoring the lasting of action of the compound under test.
The two test compounds were administered by intraarterial route at the dosage of 0.9 uM, in a volume of 0.2 ml for each animal.

[2] = system: human platelet rich plasma (PRP); assay: Platelet aggregation induced by ADP; assay type: cell-based; conditions: compared with acetylsalicylic acid
Procedure: The inhibitory effect on platelet aggregation induced BY ADP on human platelet rich plasma (PRP) was evaluated for PU 122 in comparison with acetylsalicy lie acid, according to the procedure described by G.V.R. Born (Nature, 194, 927; 1962).

[3] = system: Rat hind quarters; assay: Rat hind quarters perfused with hyperkaliemic tyrode (vasodilative activity); conditions: 5 x 10^-5 M; for Perfusion pressure after 10' / Perfusion pressure basal: hyperkaliemic tyrode; for Perfusion pressure Δ: basal minus after 10'
From the text: The vasodilative activity of PU 122 in comparison with Flunarizine was further evaluated according to the procedure described by F.N. Fastier and F.H. Smirk, (J. Pharm. Exp. Therap. 89, 256-270; […]), by measuring the antagonist action of the test compound against hyperkaliemia induced vasoconstric- tion.
The compounds under test were used at 5.10^-5 M concentration.

[4] = system: rat brain synaptosomes; assay: 45 Ca uptake in synaptosomial preparations (Ca antagonist activity); assay type: biochemical; conditions: concentration not given

Compound	Lasting of the effect [1] [min]	Area mm^2 [1] [mm^2]	Difference in pressure [1]	Δ [1]	IC50 platelet antiaggregating activity [2]	Perfusion pressure after 10' [3]	Perfusion pressure Δ [3]	Perfusion pressure basal [3]	Ca antagonist activity (effect on 45 Ca uptake) [4] [%]
COc1ccc(C=CCN2CCN(C(c3ccc(F)cc3)c3ccc(F)cc3)CC2)cc1OC.Cl.Cl [PU 122, 1-(4,4'-Difluorobenzhydryl)-4-(3,4-dimethoxycinnamyl)piperazine dihydrochloride]	16.70	487.14	18.75	29.17	substan tially better than that of acetylsalicylic acid	90.00	105.00	195.00	-16.4
Fc1ccc(C(c2ccc(F)cc2)N2CCN(C/C=C/c3ccccc3)CC2)cc1 [Flunarizine, reference compound]	12.50	314.2	10.25	25.12	–	95.00	80.00	175.00	–
